Values after ≈ are worked out from the molar mass of the structure shown.
Columns and labels:
[1] = system: PAF-induced rabbit platelet aggregation; test: Inhibition of PAF-induced rabbit platelet aggregation (in vitro, platelet-rich plasma); assay type: cell-based; details: Oryctolagus cuniculus, rabbit PRP, 37° C., final PAF concentration 0.005 μ1/ml [sic]
Protocol: (§1) The inhibition of PAF-induced platelet aggregation was examined by using a platelet-rich plasma (PRP) of rabbit according to the method of Mustard et al. [J.F. Mustard et al., J. Lab. Clin. Med., 64, 548 (1964)], which is an improvement of the method of Born [G.V.R. Born, J. Physiol., London, 162, 67 (1962)]. That is, 80-100 ml of blood per animal was collected from carotid arteries of male rabbits of the Japanese white breed without anesthesia into a polyethylene vessel containing 1/10 the volume of a 3.8% sodium citrate solution. A portion (about 3 ml) of the collected blood was centrifuged at a high speed (11,000 rpm) for 60 seconds, giving a platelet-poor plasma (PPP) as supernatant. The remainder of the blood was centrifuged at a low speed (1000 rpm) for 10 minutes, giving a platelet-rich plasma (PRP) as supernatant.
(§2) The degree of platelet aggregation was determined by nephelometry with an aggregometer (Hematracer, Niko Bioscience Co.) while stirring the PRP at 1000 rpm at 37° C. The platelet aggregation activity was expressed in terms of the light transmittance (%), the value of PRP being taken as 0% and the value of PPP as 100%. A portion (0.2 ml) of the PRP was placed in a glass cuvette containing a silicone-treated stirring iron rod, and 2 µl of dimethylsulfoxide was added. AFter 2 minutes, PAF dissolved in 0.25% BSA physiological saline was added to give a final PAF concentration of 0.005 μ1/ml, and the maximum aggregation was determined. To examine the inhibitory activity of test compounds on the platelet aggregation caused by PAF, 2 µl of a dimethylsulfoxide solution of each test compound was added in place of the dimethylsulfoxide. The percentage inhibition by the test compound of PAF-induced platelet aggregation was calculated according to the following equation and the value of IC50 was determined. [formula]

[2] = system: PAF-induced human platelet aggregation; test: Inhibition of PAF-induced human platelet aggregation (in vitro, human PRP); assay type: cell-based
Protocol: as §1, §2
The inhibition of PAF-induced platelet aggregation was tested by using human PRP. The test was conducted according to the procedure of the above case of rabbit, thereby evaluating the percentages inhibition and IC50 values of test compounds at final PAF concentrations of 0.3 μM and 1 μM.

[3] = system: PAF-induced blood concentration; test: Test in vivo for inhibition of PAF-induced blood concentration; details: guinea pigs, PAF iv 2 min later
Protocol: Guinea pigs under anesthesia with urethane (6.25 mg/kg injected into the abdominal cavities) were cannulated through carotid arteries and jugular veins. The carotid artery cannulae were used for blood sampling and the jugular vein cannulae for the intravenous injection of test compound and PAF.
Compound No. 27 was suspended in 10% Nikkol® liquid to a concentration of 3 mg/ml, and 1 ml/kg of the resulting suspension was administered through the jugular vein cannulae. Two minutes later, 1 ml/kg of a 0.1 μg/m1 PAF solution was administered through the jugular vein cannulae. Then, blood was sampled at times. The blood samples were each centrifuged at 11,000 rpm for 5 minutes and the hematocrit values were measured to determine the maximum increase (blood concentration) in hematocrit value.
For a control, 0.5% methyl cellulose solution was administered in place of compound No. 27.
The percentage inhibition of the PAF-induced blood concentration by compound No. 27 was calculated according to the following equation: [formula] The found percentage inhibition was 87%.

SMILES	IC50 [1]	also measured
CCCCCC[C@H]1S[C@H](c2cccnc2)N(CCN(C)C)C1=O (relative stereo) [compound 73]	0.07 µg/mL (≈ 0.209 µM)	
CCCCCCCCCCC[C@H]1S[C@H](c2cccnc2)N(CCN(C)C)C1=O (relative stereo) [compound 81]	0.1 µg/mL (≈ 0.247 µM)	
COc1ccc(CCN2C(=O)[C@@H](C)S[C@@H]2c2cccnc2)cc1OC (relative stereo) [compound 37]	0.7 µg/mL (≈ 1.95 µM)	
CCCCCCC1SC(c2cccnc2)N(C)C1=O (centres unmarked) [compound 47]	1.4 µg/mL (≈ 5.03 µM)	
CCN1C(=O)C(C)SC1c1cccnc1 (centres unmarked) [compound 30]	4.2 µg/mL (≈ 18.9 µM)	
CN(C)CCN1C(=O)C(CC(F)(F)F)SC1c1cccnc1 (centres unmarked) [compound 171]	4.2 µg/mL (≈ 12.6 µM)	
CCCCCC1SC(c2cccnc2)N(C)C1=O (centres unmarked) [compound 46]	1.9 µg/mL (≈ 7.19 µM)	
CCOCCCC1SC(c2cccnc2)N(CCN(C)C)C1=O (centres unmarked) [compound 137]	0.19 µg/mL (≈ 0.563 µM)	
CCCCCCCCC[C@H]1S[C@@H](c2cccnc2)N(CCCN(C)C)C1=O (relative stereo) [compound 108]	0.7 µg/mL (≈ 1.79 µM)	IC50 ([2]; PAF concentration 0.3 μM): 1.8 µg/mL (≈ 4.6 µM); IC50 ([2]; PAF concentration 1 μM): 6 µg/mL (≈ 15.3 µM)
CCCCCCCCC[C@H]1S[C@H](c2cccnc2)N(CCN(C)C)C1=O (relative stereo) [Compound No. 27, 3-(2-dimethylaminoethyl)-5-(n-nonyl)-2-(3-pyridyl)thiazolidin-4-one]	0.02 µg/mL (≈ 0.053 µM)	IC50 ([2]; PAF concentration 0.3 μM): 0.2 µg/mL (≈ 0.53 µM); IC50 ([2]; PAF concentration 1 μM): 0.4 µg/mL (≈ 1.06 µM); Percentage inhibition of PAF-induced blood concentration (maximum increase in hematocrit value) ([3]; dose 3 mg/kg iv): 87%
CCCCCCCCCC[C@H]1S[C@@H](c2cccnc2)N(CCN(C)C)C1=O (relative stereo) [compound 80]	0.35 µg/mL (≈ 0.894 µM)	
CN(C)CCN1C(=O)C(C)(C)SC1c1cccnc1 (centres unmarked) [compound 25, 5,5-dimethyl-3-(2-dimethylaminoethyl)2-(3-pyridyl)thiazolidin-4-one]	10 µg/mL (≈ 35.8 µM)	
CN(C)CCN1C(=O)[C@@H](CCCO[Si](C)(C)C(C)(C)C)S[C@@H]1c1cccnc1 (relative stereo) [compound 169]	0.026 µg/mL (≈ 0.0614 µM)	
C[C@H]1S[C@H](c2cccnc2)N(C)C1=O (relative stereo) [compound 3, 3,5-Dimethyl-2-(3-pyridyl)thiazolidin-4-one]	3.5 µg/mL (≈ 16.8 µM)	IC50 ([2]; PAF concentration 0.3 μM): 6 µg/mL (≈ 28.8 µM); Percentage inhibition of PAF-induced blood concentration (maximum increase in hematocrit value) ([3]; dose 30 mg/kg iv): 58%
CN(C)CCN1C(=O)[C@@H](CCOCc2ccccc2)S[C@@H]1c1cccnc1 (relative stereo) [compound 131]	0.14 µg/mL (≈ 0.363 µM)	
CC(C)COCCOCC[C@H]1S[C@H](c2cccnc2)N(CCN(C)C)C1=O (relative stereo) [compound 150]	0.16 µg/mL (≈ 0.404 µM)	
C[C@@H]1S[C@@H](c2cccnc2)N(C)C1=O (single isomer, unassigned) [compound 181, (+)-trans-3,5-dimethyl-2-(3-pyridyl)-thiazolidin-4-one]	5 µg/mL (≈ 24 µM)	
CCCCCCCC[C@H]1S[C@H](c2cccnc2)N(CCN(C)C)C1=O (relative stereo) [compound 77]	0.034 µg/mL (≈ 0.0935 µM)	
CCCCOCCOCC[C@H]1S[C@H](c2cccnc2)N(CCN(C)C)C1=O (relative stereo) [compound 135]	0.15 µg/mL (≈ 0.379 µM)	
CCOC(=O)CN1C(=O)[C@@H](C)S[C@H]1c1cccnc1 (relative stereo) [Compound No. 9, 3-ethoxycarbonylmethyl-5-methyl-2(3-pyridyl)thiazolidin-4-one]	1.6 µg/mL (≈ 5.71 µM)	
CCCCCCCCCC[C@H]1S[C@H](c2cccnc2)N(CCN(C)C)C1=O (relative stereo) [compound 79]	0.05 µg/mL (≈ 0.128 µM)	
CCCCCCCC[C@H]1S[C@@H](c2cccnc2)N(CCN(C)C)C1=O (relative stereo) [compound 78]	0.14 µg/mL (≈ 0.385 µM)	
CCCC1SC(c2cccnc2)N(C)C1=O (centres unmarked) [compound 43]	1.2 µg/mL (≈ 5.08 µM)	
C[C@H]1S[C@@H](c2cccnc2)N(C)C1=O (single isomer, unassigned) [compound 178, (+)-cis-3,5-dimethyl-2-(3-pyridyl)-thiazolidin-4-one]	1.5 µg/mL (≈ 7.2 µM)	
CN(C)CCN1C(=O)C(CCOCc2ccccc2)(CCOCc2ccccc2)SC1c1cccnc1 (centres unmarked) [compound 130]	4.2 µg/mL (≈ 8.08 µM)	

SMILES	IC50 [1]	also measured
CC(C)OCCC1SC(c2cccnc2)N(CCN(C)C)C1=O (centres unmarked) [compound 154]	2.4 µg/mL (≈ 7.11 µM)	
CCCCOCC[C@H]1S[C@H](c2cccnc2)N(CCN(C)C)C1=O (relative stereo) [compound 133]	0.18 µg/mL (≈ 0.512 µM)	
C#CCN1C(=O)[C@@H](C)S[C@@H]1c1cccnc1 (relative stereo) [compound 33]		IC50 ([2]; PAF concentration 0.3 μM): 5.5 µg/mL (≈ 23.7 µM)
C[C@H]1S[C@@H](c2cccnc2)N(C)C1=O (relative stereo) [Compound No. 2, 3,5-Dimethyl-2-(3-pyridyl)thiazolidin-4-one]	4 µg/mL (≈ 19.2 µM)	IC50 ([2]; PAF concentration 0.3 μM): 5.5 µg/mL (≈ 26.4 µM); Percentage inhibition of PAF-induced blood concentration (maximum increase in hematocrit value) ([3]; dose 3 mg/kg iv): 53%
CN(C)CCN1C(=O)[C@@H](CCCO[Si](C)(C)C(C)(C)C)S[C@H]1c1cccnc1 (relative stereo) [compound 170]	0.052 µg/mL (≈ 0.123 µM)	
CC(=O)SCCN1C(=O)[C@@H](C)S[C@H]1c1cccnc1 (relative stereo) [Compound No. 18, 3-(2-Acetylthioethyl)-5-methyl-2(3-pyridyl)thiazolidin-4-one]	3 µg/mL (≈ 10.1 µM)	
CCC1SC(c2cccnc2)N(CCN(C)C)C1=O (centres unmarked) [compound 24, 5-ethyl-3-(2-dimethylaminoethyl)-2-(3-pyridyl)thiazolidin-4-one]	2 µg/mL (≈ 7.16 µM)	
CCC[C@H]1S[C@H](c2cccnc2)N(CCN(C)C)C1=O (relative stereo) [compound 67]	0.45 µg/mL (≈ 1.53 µM)	
CCCCCCCCC[C@H]1S[C@@H](c2cccnc2)N(C)C1=O (relative stereo) [compound 50]	4.6 µg/mL (≈ 14.4 µM)	
C[C@H]1S[C@H](c2cccnc2)N(CCN(C)C)C1=O (relative stereo) [compound 127]	1.7 µg/mL (≈ 6.41 µM)	
CN(C)CCN1C(=O)C(CCOCCO[Si](C)(C)C(C)(C)C)SC1c1cccnc1 (centres unmarked) [compound 165]	0.3 µg/mL (≈ 0.661 µM)	
C[C@H]1S[C@H](c2cccnc2)N(CC(=O)OC(C)(C)C)C1=O (relative stereo) [Compound No. 15, 3-t-butyloxycarbonylmethyl-5-methyl-2-(3-pyridyl)thiazolidin-4-one]	2.6 µg/mL (≈ 8.43 µM)	
CCCCC1SC(c2cccnc2)N(C)C1=O (centres unmarked) [compound 7, 5-butyl-3-methyl-2-(3-pyridyl)-thiazolidin-4-one]	2 µg/mL (≈ 7.99 µM)	
CCCCC[C@H]1S[C@H](c2cccnc2)N(CCN(C)C)C1=O (relative stereo) [compound 71]	0.32 µg/mL (≈ 0.995 µM)	
CCCCCCCCC[C@H]1S[C@@H](c2cccnc2)N(CCN(C)C)C1=O (relative stereo) [compound 28, 3-(2-Dimethylaminoethyl)-5-(n-nonyl)-2-(3-pyridyl)thiazolidin-4-one]	0.2 µg/mL (≈ 0.53 µM)	IC50 ([2]; PAF concentration 0.3 μM): 1.2 µg/mL (≈ 3.18 µM); IC50 ([2]; PAF concentration 1 μM): 2.5 µg/mL (≈ 6.62 µM); Percentage inhibition of PAF-induced blood concentration (maximum increase in hematocrit value) ([3]; dose 30 mg/kg iv): 92%
C[C@H]1S[C@@H](c2cccnc2)N(CCN(C)C)C1=O (relative stereo) [compound 128]	4.2 µg/mL (≈ 15.8 µM)	
CN1C(=O)C(C)(C)SC1c1cccnc1 (centres unmarked) [compound 8, 5,5,3-trimethyl-2-(3-pyridyl)-thiazolidin-4-one]	3.6 µg/mL (≈ 16.2 µM)	
CCC1SC(c2cccnc2)N(C)C1=O (centres unmarked) [compound 42]	2.5 µg/mL (≈ 11.2 µM)	
CCCCCCC[C@H]1S[C@@H](c2cccnc2)N(CCN(C)C)C1=O (relative stereo) [compound 76]	0.2 µg/mL (≈ 0.572 µM)	
CCCCCCCCCCC[C@H]1S[C@@H](c2cccnc2)N(CCN(C)C)C1=O (relative stereo) [compound 82]	0.6 µg/mL (≈ 1.48 µM)	
CCCC[C@H]1S[C@H](c2cccnc2)N(CCN(C)C)C1=O (relative stereo) [compound 69]	0.24 µg/mL (≈ 0.781 µM)	
CCCCCCCCCCCC[C@H]1S[C@H](c2cccnc2)N(CCN(C)C)C1=O (relative stereo) [compound 83]	0.27 µg/mL (≈ 0.643 µM)	
CCCCCCCCC[C@H]1S[C@H](c2cccnc2)N(C)C1=O (relative stereo) [compound 49]	2.4 µg/mL (≈ 7.49 µM)	
CCCCCCC[C@H]1S[C@H](c2cccnc2)N(CCN(C)C)C1=O (relative stereo) [compound 75]	0.06 µg/mL (≈ 0.172 µM)	
CCCCCCCCCCC1SC(c2cccnc2)N(C)C1=O (centres unmarked) [compound 51]	1.4 µg/mL (≈ 4.18 µM)	
